Data: patent US10240124B2, “Cell culture substrate comprising a laminin and a cadherin” (BioLamina AB, priority 2011, dated 2019)

Legend:
[1] = tested on: human embryonic stem cells; experiment: Survival of hES cells plated in single cell suspension on precoated dishes (description); type: cell-based; details: O3 medium, 30 Kcells/cm^2
From the text: In other aspects, the present disclosure provides a new material, isolated laminin-521, which permits human embryonic stem cell survival after dissociation into single cell suspension. The stem cells were dissociated into single cell suspension by Trypsin-EDTA treatment, pelleted by centrifugation, resuspended into O3 medium, filtered through a 40 μm sieve, and plated at a density of 30 Kcells/cm^2 on cell culture dishes precoated by either isolated laminin-521, laminin-511, or Matrigel. After one day in culture, the cells plated on Matrigel died, as is known in the art.

Human ES cells [2] = experiment: Expansion of hES cells on r-laminin-521 with single cell dissociation passaging (Example 1); type: cell-based
From the text: In further aspects, the present disclosure provides a method to expand human embryonic stem cells in pluripotent state. It has been shown that human embryonic stem cells plated in single cell suspension on laminin-521 survived and proliferated at a higher rate than that of classical methods known in the art. After 3 passages (1 month) the cells passaged in a single cell suspension underwent the same number of cell divisions as that of cell cultures passaged in pieces on Matrigel after 20 passages (3 months). Therefore, the new method was advantageous in terms of time and labor, which may provide significant economical profits.
Human ES cells were cultured on r-laminin-521-coated laboratory dishes in chemically defined O3 medium (described in Rodin et al., Nature Biotechnol., vol. 28, pp. 611-615 (2010)) at 37° C. in 5% CO2. Cells were routinely passed once every 10-12 days by exposure to Trypsin-EDTA solution (GIBCO Invitrogen) for 5 minutes at 37° C. They were then gently pipetted to break into single-cell suspension and defined trypsin inhibitor (GIBCO Invitrogen) was added. The cell suspension was centrifuged […], the supernatant discarded, the cell pellet resuspended in prewarmed O3 medium, and cells were then passed through a 40 μm sieve. After that cells were plated on new r-laminin-521-coated dishes at a concentration 30 Kcells/cm^2 (1:25-1:30 split ratio). Cells were fed once a day with fresh medium prewarmed in an incubator for 1 hour, except for the first day after a passage, when only a few drops of fresh medium were added. Control cells of the same line were cultured on Matrigel (BD Biosciences) in O3 medium as described in Rodin et al., Nature Biotechnol., vol. 28, pp. 611-615 (2010). Control cells were passaged in pieces.

human ES cells (HS181) = experiment: Cell adhesion assay, Crystal Violet (Example 1); type: cell-based
Experimental: Ninety-six-well tissue cell culture plates were coated overnight at 4° C. with sterile solutions of the ECM proteins mouse LN-111 (Invitrogen), human recombinant LN-511, and human recombinant LN-521, all at a concentration of 30 μg/ml (5 μg/cm^2). For control cells, BD Matrigel™ hESC qualified (BD Biosciences) was used according to the manufacturer's instructions.
The assay was performed as described (Extracellular Matrix Protocols, 2000). Briefly, 96-well plates were coated by extracellular matrix proteins as described above and blocked by O3 medium containing bovine serum albumin. The ES cells were plated at a cell density of 600 cell/mm^2 upon extracellular matrix-coated plates and were left to adhere for either 1 hour or 1 day at the cell incubator. Non-adherent cells were washed away, and adherent cells were fixed for 20 min by 5% glutaraldehyde, stained by 0.1% Crystal Violet.

Human ES cells [3] = experiment: Real-time quantitative RT-PCR of Oct4 and Nanog (Example 1); type: cell-based; details: FIG. 11
Experimental: Total RNA was isolated and cDNA was synthesized as described in Rodin et al., Nature Biotechnol., vol. 28, pp. 611-615 (2010). Real-time quantitative RT-PCR Taqman assays were performed using the Applied Biosystems 7300 Real-Time PCR System. All reactions were done in quadruplicate with predeveloped gene expression assay mix (Applied Biosystems) containing primers and a probe for the mRNA of interest. Additional reactions for each experiment included predeveloped gene expression assay mix for GAPDH, used to normalize the RNA input. All data were analyzed with 7300 System SDS Software version 1.4.

[4] = tested on: human pluripotent cells (HS181, HS401, H1, ChiPSW, CutB1.2); experiment: Long-term self-renewal culture of hES and iPS cells on LN-521 (Example 2); type: cell-based; details: for passages of proliferation on LN-521: O3 medium
myosin light chain (MLC) = experiment: Western blot of phosphorylated myosin light chain; type: cell-based, human; details: one and six hours after plating, FIG. 12 and 13
Experimental: HS 181 cells were trypsinized into single cell suspension as described above. For inhibition experiments, the cells were kept in O3 medium with blocking antibodies or pathway inhibitors for 30 minutes and then 450K cells were plated on 35 mm dishes precoated with the appropriate matrix coating. For other experiments, same number of cells was plated directly after trypsinization. […] After two washings in ice-cold PBS, the plates with cells were snap frozen in liquid nitrogen and stored at −80° C. To prepare samples for western blots and ELISA, the plates were slowly thawed and kept on ice with 100-150 μl of lysis buffer (50 mM Tris-HCl, pH7.5, 150 mM NaCl, 0.5% deoxycholate, 0.5% SDS, 1% Triton X-100, 1% Igepal, Complete™ (Roche) and Phospho-Stop™ (Roche)) on top. Then, the cells were scraped, pipetted and sheared through a 27 G ¾″ needle. After that, the cell pellets were clarified by centrifugation at 16,100 rcf for 15 minutes at 4° C. For western blots, 4-12% gradient gels were used for SDS electrophoresis and the proteins were transferred to PVDF membranes. The membrane was hybridized with the antibody of interest according to the manufacturer's instructions. […] For the densitometry analysis the films were scanned at 2,400 dpi and analyzed by the Chemilmager5500 program (1 D-Multi Line densitometry mode). […]

Integrin α6β1 = Integrin α6β1 (Homo sapiens, UniProt P05556+P23229); details: cited from earlier work
Sequence of Integrin α6β1 (P23229 24-1130): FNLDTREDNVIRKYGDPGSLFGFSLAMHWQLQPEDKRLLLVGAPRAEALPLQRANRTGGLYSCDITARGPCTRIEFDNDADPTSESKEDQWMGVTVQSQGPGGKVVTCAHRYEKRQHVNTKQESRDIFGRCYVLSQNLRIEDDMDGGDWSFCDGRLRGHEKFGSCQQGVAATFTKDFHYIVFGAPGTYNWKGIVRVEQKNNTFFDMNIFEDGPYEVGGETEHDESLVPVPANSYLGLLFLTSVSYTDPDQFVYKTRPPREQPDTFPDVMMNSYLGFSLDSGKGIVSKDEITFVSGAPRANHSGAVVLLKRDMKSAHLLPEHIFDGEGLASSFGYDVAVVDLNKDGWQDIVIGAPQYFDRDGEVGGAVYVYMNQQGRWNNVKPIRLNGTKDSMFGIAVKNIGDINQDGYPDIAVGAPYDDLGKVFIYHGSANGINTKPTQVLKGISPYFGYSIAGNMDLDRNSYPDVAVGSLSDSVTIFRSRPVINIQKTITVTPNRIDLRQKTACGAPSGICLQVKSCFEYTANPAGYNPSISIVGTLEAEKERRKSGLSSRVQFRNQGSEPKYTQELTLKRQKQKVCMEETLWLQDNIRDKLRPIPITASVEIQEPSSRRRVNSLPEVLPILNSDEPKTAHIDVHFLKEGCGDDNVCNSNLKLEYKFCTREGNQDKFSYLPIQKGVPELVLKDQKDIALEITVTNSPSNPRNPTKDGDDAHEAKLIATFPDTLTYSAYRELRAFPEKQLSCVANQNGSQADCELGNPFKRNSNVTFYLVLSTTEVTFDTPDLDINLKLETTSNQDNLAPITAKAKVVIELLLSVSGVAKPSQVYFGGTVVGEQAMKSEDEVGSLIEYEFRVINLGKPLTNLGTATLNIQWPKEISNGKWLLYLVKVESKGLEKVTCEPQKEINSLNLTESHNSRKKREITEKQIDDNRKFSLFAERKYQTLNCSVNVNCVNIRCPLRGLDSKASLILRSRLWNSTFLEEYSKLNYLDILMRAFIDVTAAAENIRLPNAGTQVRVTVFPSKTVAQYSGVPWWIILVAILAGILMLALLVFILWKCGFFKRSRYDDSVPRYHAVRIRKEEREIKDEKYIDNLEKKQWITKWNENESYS
Sequence of Integrin α6β1 (P05556 21-798): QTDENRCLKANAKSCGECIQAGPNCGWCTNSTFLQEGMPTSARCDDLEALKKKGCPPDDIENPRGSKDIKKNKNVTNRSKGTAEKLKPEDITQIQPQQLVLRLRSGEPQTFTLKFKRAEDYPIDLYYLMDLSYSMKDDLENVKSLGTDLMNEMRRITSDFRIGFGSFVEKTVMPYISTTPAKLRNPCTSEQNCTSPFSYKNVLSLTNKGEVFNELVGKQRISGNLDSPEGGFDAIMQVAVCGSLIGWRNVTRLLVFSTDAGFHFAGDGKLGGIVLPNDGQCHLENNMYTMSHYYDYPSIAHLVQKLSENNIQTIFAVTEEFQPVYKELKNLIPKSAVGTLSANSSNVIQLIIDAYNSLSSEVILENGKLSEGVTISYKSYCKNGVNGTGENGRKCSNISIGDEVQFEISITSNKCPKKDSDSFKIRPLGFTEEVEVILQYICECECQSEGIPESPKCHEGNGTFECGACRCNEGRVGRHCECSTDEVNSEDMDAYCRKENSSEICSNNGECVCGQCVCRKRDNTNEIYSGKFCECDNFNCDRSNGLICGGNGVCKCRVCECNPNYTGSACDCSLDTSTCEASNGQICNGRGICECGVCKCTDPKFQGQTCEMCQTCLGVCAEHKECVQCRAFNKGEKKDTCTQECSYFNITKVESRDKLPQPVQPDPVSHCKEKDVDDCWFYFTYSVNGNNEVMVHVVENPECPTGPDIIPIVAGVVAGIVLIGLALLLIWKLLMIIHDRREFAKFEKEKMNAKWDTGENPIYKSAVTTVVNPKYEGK

LN-521: protein formed by joining α5, β2 and γ1 laminin chains; human recombinant, produced in HEK293 cells
survival of human embryonic stem cells after one day in culture [1]: survived and started to proliferate | passages in single cell suspension giving the same number of cell divisions as cultures passaged in pieces on Matrigel after 20 passages (3 months) (Human ES cells [2]; 1 month): 3 passages | passages to the same number of cell doublings as stem cells after 20 passages (100 days) by conventional methods (Human ES cells [2]; 1 month, FIG. 8): 3 passages | increase in the number of cells versus time compared with Matrigel (Human ES cells [2]; FIG. 8): much faster rate | proliferation rate compared with classical methods (Human ES cells [2]; plated in single cell suspension): higher rate | passages of robust proliferation at a stable and high rate (Human ES cells [2]; single cell passaging every 10-12 days, 1:25 to 1:30, 3 months): at least 9 passages | adhesion at 1 day without additives compared with all dishes including the ROCK inhibitor (human ES cells (HS181); FIG. 7): similar | cells remaining attached / surviving 24 hours after plating (human ES cells (HS181); HS181 completely dissociated, O3 medium without any additives, FIG. 4): survived | adhesion of human ES cells at 1 hour (human ES cells (HS181); O3 medium without any additives, without Y-27632, FIG. 6): roughly the same | adhesion at 1 day relative to Matrigel without additives (human ES cells (HS181); without additives, FIG. 7): 20 times | number of mRNA transcripts of Oct4 and Nanog compared with Matrigel (Human ES cells [3]): higher numbers of transcripts | passages cultured on LN-521 ([4]; ChiPSW iPS cells, mTeSR1): 3 passages | passages cultured on LN-521 ([4]; CutB1.2 iPS cells, mTeSR1): 5 passages | passages of proliferation on LN-521 ([4]; H1 cells, 6 months): ≥ 15 passages | passages cultured on LN-521 ([4]; H1 cells, TeSR2, xeno-free, 5 months): 12 passages | passages of proliferation on LN-521 ([4]; HS181 cells, 9 months): at least 24 passages | passages of proliferation on LN-521 ([4]; HS401 cells, 2 months): ≥ 5 passages | passages cultured on LN-521 ([4]; HS401 cells, TeSR2, xeno-free, 1.5 months): 4 passages | phosphorylation of MLC compared with cells on Matrigel and LN-111 (myosin light chain (MLC)): even higher | binding affinity of integrin α6β1 compared with LN-111 (Integrin α6β1): higher than that for LN-111
